Results: PubChem BioAssay AID2060903 (Molecular Pharmacology Branch, DTP, NCI, 2025)

Tested on: 377384-186-R-J1-PDC complex spheroid viability
Assay: Anticancer human tumor 377384-186-R-J1-PDC patient-derived pancreatic carcinoma cell line growth inhibition [RAS]
Conditions: for viability, T/C: stronger effect = lower value; active = viability on the fitted dose curve at most 10% of control; inactive = the rest
Procedure, shortened: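 Agents were tested in combination matrices in half-log decrements from a top concentration at or near clinical Cmax (10 microM if undetermined). Targets were multi-cell spheroids of tumour lines plus HUVEC and MSC stromal cells.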
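Also: spheroids exposed to compounds for seven days before readout.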

CCc1c2c(nc3ccc(O)cc13)-c1cc3c(c(=O)n1C2)COC(=O)[C@]3(O)CC + CCn1c(-c2cc(N3CCN(C)CC3)cnc2C(C)OC)c2c3cc(ccc31)-c1csc(n1)CC(NC(=O)C1CC1C)C(=O)N1CCCC(N1)C(=O)OCC(C)(C)C2
inactive: viability, T/C (second compound 0.000949 µM, first compound 0.000949 µM) 33.1% | viability, T/C (second compound 0.000949 µM, first compound 0.003 µM) 21.3% | viability, T/C (second compound 0.000949 µM, first compound 0.00949 µM) 10.2% | viability, T/C (second compound 0.003 µM, first compound 0.000949 µM) 20.8%
< 0.949 nM: IC50 (curve of first compound, second compound 0.000949 µM) | IC50 (curve of first compound, second compound 0.003 µM) | IC50 (curve of first compound, second compound 0.00949 µM) | IC50 (curve of first compound, second compound 0.03 µM) | IC50 (curve of first compound, second compound 0.0949 µM) | IC50 (curve of first compound, second compound 0.3 µM)
active: viability, T/C (second compound 0.000949 µM, first compound 0.03 µM) 5.07% | viability, T/C (second compound 0.000949 µM, first compound 0.0949 µM) 2.53% | viability, T/C (second compound 0.000949 µM, first compound 0.3 µM) 1.79% | viability, T/C (second compound 0.003 µM, first compound 0.003 µM) 7.71% | viability, T/C (second compound 0.003 µM, first compound 0.00949 µM) 4.82% | viability, T/C (second compound 0.003 µM, first compound 0.03 µM) 3.05% | viability, T/C (second compound 0.003 µM, first compound 0.0949 µM) 2.03% | viability, T/C (second compound 0.003 µM, first compound 0.3 µM) 1.92% | viability, T/C (second compound 0.00949 µM, first compound 0.000949 µM) 4.34% | viability, T/C (second compound 0.00949 µM, first compound 0.003 µM) 3.24% | viability, T/C (second compound 0.00949 µM, first compound 0.00949 µM) 2.6% | viability, T/C (second compound 0.00949 µM, first compound 0.03 µM) 2.11% | viability, T/C (second compound 0.00949 µM, first compound 0.0949 µM) 2.15% | viability, T/C (second compound 0.00949 µM, first compound 0.3 µM) 1.25% | viability, T/C (second compound 0.03 µM, first compound 0.000949 µM) 2.43% | viability, T/C (second compound 0.03 µM, first compound 0.003 µM) 2.09% | viability, T/C (second compound 0.03 µM, first compound 0.00949 µM) 2.04% | viability, T/C (second compound 0.03 µM, first compound 0.03 µM) 2.06% | viability, T/C (second compound 0.03 µM, first compound 0.0949 µM) 1.98% | viability, T/C (second compound 0.03 µM, first compound 0.3 µM) 1.26% | viability, T/C (second compound 0.0949 µM, first compound 0.000949 µM) 1.98% | viability, T/C (second compound 0.0949 µM, first compound 0.003 µM) 1.94% | viability, T/C (second compound 0.0949 µM, first compound 0.00949 µM) 1.8% | viability, T/C (second compound 0.0949 µM, first compound 0.03 µM) 1.65% | viability, T/C (second compound 0.0949 µM, first compound 0.0949 µM) 1.4% | viability, T/C (second compound 0.0949 µM, first compound 0.3 µM) 0.95% | viability, T/C (second compound 0.3 µM, first compound 0.000949 µM) 1.39% | viability, T/C (second compound 0.3 µM, first compound 0.003 µM) 1.76% | viability, T/C (second compound 0.3 µM, first compound 0.00949 µM) 1.84% | viability, T/C (second compound 0.3 µM, first compound 0.03 µM) 1.68% | viability, T/C (second compound 0.3 µM, first compound 0.0949 µM) 1.29% | viability, T/C (second compound 0.3 µM, first compound 0.3 µM) 0.71%

Cc1nc(N2CCC3(CC2)COC(C)C3N)c(CO)nc1Sc1ccnc(N)c1Cl (centres undefined)
> 10000 nM: IC50 (curve of compound)
inactive: viability, T/C (compound 0.0316 µM) 92% [middle of 4 runs] | viability, T/C (compound 0.1 µM) 85.4% [middle of 4 runs] | viability, T/C (compound 0.316 µM) 83.3% [middle of 4 runs] | viability, T/C (compound 1 µM) 85.2% [middle of 4 runs] | viability, T/C (compound 3.16 µM) 84.6% [middle of 4 runs] | viability, T/C (compound 10 µM) 79% [middle of 4 runs]
